Measured values as given in US10647719B2, “Bicyclic compounds as dual ATX/CA inhibitors” (Hoffmann-La Roche Inc., priority 2015, dated 2020).
Read-outs that look alike come from different tables or passages of the source.

Assays:
human ATX = human ATX (Homo sapiens (Human), UniProt Q13822); test: Human ATX enzyme inhibition assay (fluorescence quenching, MR121 substrate); type: biochemical
Procedure: Human ATX Enzyme Inhibition Assay
ATX inhibition was measured by a fluorescence quenching assay using a specifically labeled substrate analogue (MR121 substrate). To obtain this MR121 substrate, BOC and TBS protected 6-amino-hexanoic acid (R)-3-({2-[3-(2-{2-[2-(2-amino-ethoxy)-ethoxy]-ethoxy}-ethoxy)-propionylamino]-ethoxy}-hydroxy-phosphoryloxy)-2-hydroxy-propyl ester (Ferguson et al., Org Lett 2006, 8 (10), 2023) was labeled with MR121 fluorophore (CAS 185308-24-1, 1-(3-carboxypropyl)-11-ethyl-1,2,3,4,8,9,10,11-octahydro-dipyrido[3,2-b:2′,3′-i]phenoxazin-13-ium) on the free amine of the ethanolamine side and then, after deprotection, subsequently with tryptophan on the side of the aminohexanoic acid.
(§1) Assay working solutions were made as follows:
Assay buffer (50 mM Tris-HCl, 140 mM NaCl, 5 mM KCl, 1 mM CaCl2, 1 mM MgCl2, 0.01% Triton-X-100, pH 8.0;
ATX solution: ATX (human His-tagged) stock solution (1.08 mg/mL in 20 mM bicine, pH 8.5, 0.15 M NaCl, 10% glycerol, 0.3% CHAPS, 0.02% NaN3), diluted to 1.4-2.5× final concentration in assay buffer;
MR121 substrate solution: MR121 substrate stock solution (800 μM MR121 substrate in DMSO), diluted to 2-5× final concentration in assay buffer.
Test compounds (10 mM stock in DMSO, 8 μL) were obtained in 384 well sample plates (Corning Costar #3655) and diluted with 8 μL DMSO. Row-wise serial dilutions were made by transferring 8 μL cpd solution to the next row up to row O. The compound and control solutions were mixed five times and 2 μL were transferred to 384 well assay plates (Corning Costar #3702). Then, 15 μL of 41.7 nM ATX solution was added (30 nM final concentration), mixed five times and then incubated for 15 minutes at 30° C. 10 μL of MR121 substrate solution was added (1 μM final concentration), mixed 30 times and then incubated for 15 minutes at 30° C.

[1] = target: Human carbonic anhydrase II (hCA-II) (Homo sapiens (Human), UniProt P00918); test: Human carbonic anhydrase-II inhibition assay (absorbance, 4-nitrophenyl acetate substrate); type: biochemical
Procedure: Human Carbonic Anhydrase-II Inhibition Assay
Human carbonic anhydrase II (hCA-II) inhibition was measured by an absorbance method using 4-nitrophenyl acetate (4-NPA) as its substrate. 4-NPA can be catalyzed by active hCA II via a zinc-hydroxide mechanism. The nitrophenolate in the products can be ionized to generate a bright yellow anion with high absorbance at 348 to 400 nm, as reported in the literature (Armstrong et al., J. Biol. Chem. 1966, 241, 5137-5149). OD340 nm was chosen for detecting hCA II substrate conversion.
as §1
Assay buffer: 50 mM MOPS, 33 mM Na2SO4, 1 mM EDTA, 0.5 mg/ml BSA, pH 7.5;
Enzyme solution: hCA-II (human, full length) stock solution (1.0 mg/mL in 20 mM HEPES, 50 mM NaCl, pH 7.4), diluted to 2133× final concentration in assay buffer;
4-NPA substrate solution: 4-NPA substrate stock solution (250 mM in DMSO, stored at −20° C.), diluted to 50× final concentration in deionized water.
Test compounds (10 mM stock in DMSO, 100 μL) were obtained in […] sample plates (Corning Costar #3655) and diluted to 0.5 mM. Column-wise serial dilutions were made by transferring 20 μL compound solutions to the next column, from column 3 up to 22. After this, 1.2 μL were transferred to 384 well assay plates (Corning Costar #3701). Then 30 μL of 16 nM hCA II solution was added (8 nM final concentration), mixed five times. 30 μL of 4-NPA substrate solution was added (2.5 mM final concentration), mixed five times. Absorbance at 340 nm was then measured immediately as time zero. The assay plates were incubated at room temperature for 1 hour and then measured as time 1 hour (Perkin Elmer EnVision 2103; Filter: Photometric 340; Light intensity 60%; Number of flashes: 10). IC50 values and Ki values were calculated from these readouts.

[2] = human His-tagged ATX 30 nM, MR121 substrate 1 μM, 30° C., read-out: ATX IC50
[3] = hCA II 8 nM, 4-NPA 2.5 mM, absorbance 340 nm, room temperature 1 hour, read-out: CA-II IC50

Compound | IC50 (human ATX; [2]) [nM] | IC50 [1, 3] [nM] | IC50 (human ATX) [nM] | IC50 [1] [nM]
CC(C)(C)C(=O)Nc1cc(C(F)(F)F)cnc1COC(=O)N1CC2=C(C1)CN(C(=O)c1ccc(S(N)(=O)=O)cc1)C2 [Example 1.00, [3-(2,2-Dimethylpropanoylamino)-5-(trifluoromethyl)pyridin-2-yl]methyl 2-(4-sulfamoylbenzoyl)-1,3,4,6-tetrahydropyrrolo[3,4-c]pyrrole-5-carboxylate] | 6 | 14 | – | –
CC(C)(C)C(=O)Nc1cc(C(F)(F)F)cnc1COC(=O)N1CC2=C(C1)CN(C(=O)c1cc(F)c(S(N)(=O)=O)cc1F)C2 [Example 1.01, [3-(2,2-dimethylpropanoylamino)-5-(trifluoromethyl)pyridin-2-yl]methyl 2-(2,5-difluoro-4-sulfamoylbenzoyl)-1,3,4,6-tetrahydropyrrolo[3,4-c]pyrrole-5-carboxylate] | 10 | 7 | – | –
CC(C)(C)C(=O)Nc1cc(C(F)(F)F)cnc1COC(=O)N1CC2=C(C1)CN(C(=O)c1ccc(S(N)(=O)=O)c(Cl)c1)C2 [Example 1.02, [3-(2,2-dimethylpropanoylamino)-5-(trifluoromethyl)pyridin-2-yl]methyl 2-(3-chloro-4-sulfamoylbenzoyl)-1,3,4,6-tetrahydropyrrolo[3,4-c]pyrrole-5-carboxylate] | 5 | 10 | – | –
CC(C)(C)C(=O)Nc1cc(C(F)(F)F)cnc1COC(=O)N1CC2=C(C1)CN(C(=O)c1ccc(S(N)(=O)=O)c(F)c1)C2 [Example 1.03, [3-(2,2-dimethylpropanoylamino)-5-(trifluoromethyl)pyridin-2-yl]methyl 2-(3-fluoro-4-sulfamoylbenzoyl)-1,3,4,6-tetrahydropyrrolo[3,4-c]pyrrole-5-carboxylate] | 5 | 9 | – | –
CC(C)(C)C(=O)Nc1cc(C(F)(F)F)cnc1COC(=O)N1CC2=C(C1)CN(C(=O)c1ccc(S(N)(=O)=O)cc1F)C2 [Example 1.04, [3-(2,2-dimethylpropanoylamino)-5-(trifluoromethyl)pyridin-2-yl]methyl 2-(2-fluoro-4-sulfamoylbenzoyl)-1,3,4,6-tetrahydropyrrolo[3,4-c]pyrrole-5-carboxylate] | 4 | 5 | – | –
CC(C)(C)C(=O)Nc1cc(C(F)(F)F)cnc1COC(=O)N1CC2=C(C1)CN(C(=O)c1ccc(S(N)(=O)=O)cn1)C2 [Example 1.05, [3-(2,2-dimethylpropanoylamino)-5-(trifluoromethyl)pyridin-2-yl]methyl 2-(5-sulfamoylpyridine-2-carbonyl)-1,3,4,6-tetrahydropyrrolo[3,4-c]pyrrole-5-carboxylate] | 7 | 11 | – | –
NS(=O)(=O)c1ccc(C(=O)N2CC3=C(CN(C(=O)OCc4ccc(OC(F)(F)F)cc4)C3)C2)cc1 [Example 1.06, 4-(trifluoromethoxy)benzyl 5-(4-sulfamoylbenzoyl)-3,4,5,6-tetrahydropyrrolo[3,4-c]pyrrole-2(1H)-carboxylate] | – | – | 5 | 10
NS(=O)(=O)c1ccc(C(=O)N2CC3=C(CN(C(=O)c4cc(OCC5CCOCC5)nc(C5CC5)c4)C3)C2)nc1 [Example 1.07, 6-[5-[2-cyclopropyl-6-(oxan-4-ylmethoxy)pyridine-4-carbonyl]-1,3,4,6-tetrahydropyrrolo[3,4-c]pyrrole-2-carbonyl]pyridine-3-sulfonamide] | 12 | 18 | – | –
NS(=O)(=O)c1ccc(C(=O)N2CC3=C(CN(C(=O)c4cc(OCC5CCOCC5)nc(C5CC5)c4)C3)C2)c(F)c1 [Example 1.08, 4-[5-[2-cyclopropyl-6-(oxan-4-ylmethoxy)pyridine-4-carbonyl]-1,3,4,6-tetrahydropyrrolo[3,4-c]pyrrole-2-carbonyl]-3-fluorobenzenesulfonamide] | 8 | 6 | – | –
CC(C)(C)C(=O)Nc1cc(C(F)(F)F)cnc1COC(=O)N1CC2=C(C1)CN(C(=O)c1ccc(S(N)(=O)=O)c(F)c1F)C2 [Example 1.09, [3-(2,2-dimethylpropanoylamino)-5-(trifluoromethyl)pyridin-2-yl]methyl 2-(2,3-difluoro-4-sulfamoylbenzoyl)-1,3,4,6-tetrahydropyrrolo[3,4-c]pyrrole-5-carboxylate] | 27 | 10 | – | –

Results, then the compound that gave them:

IC50 (human ATX; [2]) [nM] | IC50 [1, 3] [nM] | IC50 (human ATX) [nM] | IC50 [1] [nM] | Compound
8 | 19 | – | – | Cc1nnn(Cc2cc(C(F)(F)F)ccc2CCC(=O)N2CC3=C(C2)CN(C(=O)c2ccc(S(N)(=O)=O)cc2F)C3)n1 [Example 1.10, 3-fluoro-4-(5-(3-(2-((5-methyl-2H-tetrazol-2-yl)methyl)-4-(trifluoromethyl)phenyl)propanoyl)-1,2,3,4,5,6-hexahydropyrrolo[3,4-c]pyrrole-2-carbonyl)benzenesulfonamide]
9 | 27 | – | – | CC(C)(C)C(=O)Nc1cc(C(F)(F)F)cnc1COC(=O)N1CC2=C(C1)CN(C(=O)c1c(F)cc(S(N)(=O)=O)cc1F)C2 [Example 1.11, [3-(2,2-dimethylpropanoylamino)-5-(trifluoromethyl)pyridin-2-yl]methyl 2-(2,6-difluoro-4-sulfamoylbenzoyl)-1,3,4,6-tetrahydropyrrolo[3,4-c]pyrrole-5-carboxylate]
6 | 12.9 | – | – | CC(C)(C)C(=O)Nc1cc(Cl)cnc1COC(=O)N1CC2=C(C1)CN(C(=O)c1ccc(S(N)(=O)=O)cc1F)C2 [Example 1.12, [5-chloro-3-(2,2-dimethylpropanoylamino)pyridin-2-yl]methyl 2-(2-fluoro-4-sulfamoylbenzoyl)-1,3,4,6-tetrahydropyrrolo[3,4-c]pyrrole-5-carboxylate]
– | 7 | – | – | CC(C)(C)C(=O)Nc1cc(C#N)cnc1COC(=O)N1CC2=C(C1)CN(C(=O)c1ccc(S(N)(=O)=O)cc1F)C2 [Example 1.24, [5-cyano-3-(2,2-dimethylpropanoylamino)pyridin-2-yl]methyl 2-(2-fluoro-4-sulfamoylbenzoyl)-1,3,4,6-tetrahydropyrrolo[3,4-c]pyrrole-5-carboxylate]
– | 8 | – | – | CC(C)(C)C(=O)Nc1cc(C#N)cnc1COC(=O)N1CC2=C(C1)CN(C(=O)c1c(F)cc(S(N)(=O)=O)cc1F)C2 [Example 1.25, [5-cyano-3-(2,2-dimethylpropanoylamino)pyridin-2-yl]methyl 2-(2,6-difluoro-4-sulfamoylbenzoyl)-1,3,4,6-tetrahydropyrrolo[3,4-c]pyrrole-5-carboxylate]
– | – | 3 | – | CC(C)(C)C(=O)Nc1cc(C#N)cnc1COC(=O)N1CC2=C(C1)CN(C(=O)c1ccc(S(N)(=O)=O)c(F)c1F)C2 [Example 1.26, [5-cyano-3-(2,2-dimethylpropanoylamino)pyridin-2-yl]methyl 2-(2,3-difluoro-4-sulfamoylbenzoyl)-1,3,4,6-tetrahydropyrrolo[3,4-c]pyrrole-5-carboxylate]
1 | – | – | – | CC(C)(C)C(=O)Nc1cc(C(F)(F)F)cnc1COC(=O)N1CCC2=C(CCN(C(=O)c3ccc(S(N)(=O)=O)cc3F)C2)C1 [Example 1.28, [3-(2,2-dimethylpropanoylamino)-5-(trifluoromethyl)pyridin-2-yl]methyl 6-(2-fluoro-4-sulfamoylbenzoyl)-1,3,4,5,7,8-hexahydro-2,6-naphthyridine-2-carboxylate]
